Here are results for two molecules from patent US20260284009A1, “COMPOUNDS FOR NOS-RELATED CANCERS AND METHODS OF USE” (YISSUM RESEARCH DEVELOPMENT COMPANY OF THE HEBREW …, priority 2023, published 2026).

Holding throughout (type): cell-based, human
For test [1], the system named is U87-MG cells. Kind of test: Nitrite (Griess) assay in U87-MG cells. As to the method:
(§1) Human glioblastoma U87-MG cells were obtained from the American Type Culture Collection (ATCC) and maintained in Dulbecco's modified Eagle's Medium (DMEM) and Ham's F-12 (1:1) supplemented with 10% fetal bovine serum, 2 mM L-glutamine, and 100 U/ml penicillin-G/[…] streptomycin in the humidified atmosphere (37° C., 5% CO2). Cells were plated onto 25 cm^2 and 75 cm^2 at a density of 7.0×10^5 and 2.1×10^6 cells/cm^2 respectively for Western blotting (WB) and 1×10^5 for immunofluorescence. The U87-MG cells were treated with 100 μM 7-nitroindazole (7-NI) for 24 hr.
(§2) In a particular example, in vitro and in vivo experiments were performed using U87-MG cells and U87-MG-xenografted mice, respectively, as a glioblastoma model.
For orientation: The Griess reaction detects nitrite, a stable product of nitric oxide.

Test [2] concerns U87-MG cells. Kind of test: Nitrate and nitrite levels in U87-MG cells. Particulars: 100 μM 7-NI, 500 or 1000 μM L-NIL, combinations of both, n=3. As to the method: In FIGS. 10A-10B, data are presented as mean±SEM. Statistical significance was determined using a One-way ANOVA with Bonferroni's multiple comparisons tests. *P<0.05, **P<0.01, and ns=not significant.
FIG. 10A: Quantitative analysis of nitrate and nitrite levels in U87-MG cells following administration of 0.1% DMSO (“Vehicle”) (n=3) or 100 μM 7-NI (“7-NI”) (n=3).
FIG. 10B: Quantitative analysis of nitrate and nitrite levels in U87-MG cells following administration of control (n=3), 500 μM L-NIL (“L-NIL 500”) (n=3), or 1000 μM L-NIL (“L-NIL 1000”) (n=3).
Data are expressed as the mean±SEM.

Test [3] has as its system U87-MG cells. Description: Clonogenic survival of U87-MG cells. Particulars: 100 μM 7-NI, 500 or 1000 μM L-NIL, combinations 100 μM 7-NI + 500 or 1000 μM L-NIL.
Text: (§3) Data are presented as mean±SEM.
as §3

Test [4] deals with U87-MG cells. Kind of test: Clonogenic survival (colony) assay in U87-MG cells. As to the method:
as §1
Cells were seeded into 6-well plates at concentrations of 500/well or 1000/well in triplicates. After 24 hours, 7-NI was added, or cells were transiently transfected with siRNA-nNOS, as described above, before changing to serum-containing medium. […] Colonies were stained with crystal violet, washed with PBS, air-dried, and imaged. The colonies were visualized using ImageJ software. Cell colonies of greater than 50 cells were identified and counted.
as §2

In test [5] the test system is U87-MG cells. Kind of test: Western blots of 3-Ntyr, CD-70, iNOS and nNOS in U87-MG cells. The following applies: western blot, 100 μM 7-NI, 500 or 1000 μM L-NIL, n=3. How it is done: In FIGS. 12A-12D, for quantitative analysis data, all individual data series are presented as biological replicates (n=3) for all groups. Data are expressed as the mean±SEM.
FIG. 12A: Representative western blots of 3-Ntyr and β-actin levels in U87-MG cells following administration of the control, 0.1% DMSO (“Vehicle”), or 100 μM 7-NI (“7-NI”).
FIG. 12B: Quantitative analysis of 3-Ntyr levels for the experiments of FIG. 12A.
FIG. 12C: Representative western blots of 3-Ntyr and β-actin levels in U87-MG cells following administration of the control, 500 μM L-NIL (“L-NIL 500”), or 1000 μM L-NIL (“L-NIL 1000”).
FIG. 12D: Quantitative analysis of 3-Ntyr levels for the experiments of FIG. 12C.
In FIGS. 13A-13B, for quantitative analysis data, all individual data series are presented as biological replicates (n=3) for all groups. Data are expressed as the mean±SEM.
FIG. 13A: Representative western blots of CD-70 and β-actin levels in U87-MG cells following administration of the control, 0.1% DMSO (“Vehicle”), 100 μM 7-NI (“7-NI”), 500 μM L-NIL (“L-NIL 500”), or 1000 μM L-NIL (“L-NIL 1000”).
FIG. 13B: Quantitative analysis of CD-70 levels for the experiments of FIG. 13A.
In FIGS. 14A-14B, for quantitative analysis data, all individual data series are presented as biological replicates (n=3) for all groups. Data are expressed as the mean±SEM.
FIG. 14A: Representative western blots of iNOS and β-actin levels in U87-MG cells following administration of the control, 0.1% DMSO (“Vehicle”), 100 μM 7-NI (“7-NI”), 500 μM L-NIL (“L-NIL 500”), or 1000 μM L-NIL (“L-NIL 1000”).
FIG. 14B: Quantitative analysis of iNOS levels for the experiments of FIG. 14A.
In FIGS. 15A-15B, for quantitative analysis data, all individual data series are presented as biological replicates (n=3) for all groups. Data are expressed as the mean±SEM.
FIG. 15A: Representative western blots of nNOS and β-actin levels in U87-MG cells following administration of the control, 0.1% DMSO (“Vehicle”), 100 μM 7-NI (“7-NI”), 500 μM L-NIL (“L-NIL 500”), or 1000 μM L-NIL (“L-NIL 1000”).
FIG. 15B: Quantitative analysis of nNOS levels for the experiments of FIG. 15A.
Background: Immunoblotting shows a protein as a band on a membrane.

With `CC(=N)NCCCC[C@H](N)C(=O)O` [L-NIL, N^6-(1-iminoethyl)-L-lysine], the “nitrite and nitrate content (Griess assay)” value in the test on U87-MG cells [1] (higher dose of L-NIL, one experiment (FIG. 10B), vs control) is “significantly reduced”; with U87-MG cells [1] (higher dose of L-NIL, second experiment (FIG. 11), reduced vs control), “not statistically significant”; in the test with U87-MG cells [1] (lower dose of L-NIL, one experiment (FIG. 11), vs control) it was “significantly reduced”; in the test with U87-MG cells [1] (lower dose of L-NIL, second experiment (FIG. 10B), reduced vs control), “not statistically significant”. The “nitrate and nitrite levels” value with U87-MG cells [2] was “significant decrease”. The clonogenic survival entry in the test on U87-MG cells [3] is on record as “significant decrease”. Also, the colony growth result with U87-MG cells [4] (higher dose of L-NIL, both experiments, vs control) is on record as “significant decrease”; with U87-MG cells [4] (lower dose of L-NIL, one experiment (FIG. 9), vs control), “significantly reduced”; in the test on U87-MG cells [4] (lower dose of L-NIL, second experiment (FIGS. 8C-8D), reduced vs control), “not statistically significant”. Further, the “3-Ntyr (nitrotyrosine) levels” value in the test on U87-MG cells [5] is given as “did not result in a significant decrease”. Moreover, the “cluster of differentiation 70 (CD-70) levels” value in the test with U87-MG cells [5] is listed as “did not lead to significant changes”. Moreover, the “inducible nitric oxide synthase (iNOS) levels” value with U87-MG cells [5] was “did not lead to significant changes”. Further, the “neuronal nitric oxide synthase (nNOS) levels” value in the test with U87-MG cells [5] was “did not lead to significant changes”.

On to `O=[N+]([O-])c1cccc2cn[nH]c12` [7-NI, 7-nitroindazole], for which the “nitrite and nitrate content (Griess assay)” value with U87-MG cells [1] (7-NI) is “dramatic reduction”. In addition, the “nitrate and nitrite levels” value in the test with U87-MG cells [2] was “significant decrease”. For the same molecule, in the test with U87-MG cells [3], the clonogenic survival entry is “significant decrease”. Further, the colony growth entry in the test with U87-MG cells [4] (7-NI, vs control and negative control (0.1% DMSO)) is “significantly impacted”. In addition, in the test on U87-MG cells [5], the “3-Ntyr (nitrotyrosine) levels” value is listed as “significant decrease”, the “cluster of differentiation 70 (CD-70) levels” value is reported as “did not lead to significant changes”, the “inducible nitric oxide synthase (iNOS) levels” value is given as “did not lead to significant changes” and the “neuronal nitric oxide synthase (nNOS) levels” value is on record as “did not lead to significant changes”.
